Assays:
[1] = system: DU145 Prostate tumor cells; experiment: Amino acid uptake assay in vitro, DU145 tumor cells ± transporter inhibitors; assay type: cell-based, human; settings: 30 minutes incubation
Description: (§1) The tumor cells were initially grown as monolayers in T-flasks containing Dulbecco's Modified Eagle's Medium (DMEM) under humidified incubator conditions (37° C., 5% CO2/95% air). The growth media were supplemented with 10% fetal calf serum and antibiotics (10,000 units/ml penicillin and 10 mg/ml streptomycin). The growth media were replaced three times per week, and the cells were passaged so the cells would reach confluency in a week's time.
(§2) When the monolayers were confluent, cells were prepared for experimentation in the following manner. Growth media were removed from the T-flask, and the monolayer cells were exposed to 1× trypsin:EDTA for ˜1 minute to weaken the protein attachments between the cells and the flask. The flask was then slapped, causing the cells to release. Supplemented media were added to inhibit the proteolytic action of the trypsin, and the cells were aspirated through an 18 Ga needle until they were monodispersed. A sample of the cells was counted under a microscope using a hemocytometer, and the live/dead fraction estimated through trypan blue staining (>98% viability). The remainder of the cells was placed into a centrifuge tube, centrifuged at 75×g for 5 minutes, and the supernatant was removed. The cells were then resuspended in amino-acid/serum-free DMEM salts.
(§3) In this study, approximately 4.55×10^5 cells were exposed to either [^18F]10 (anti-FACBC) or [^18F]15 (syn-FACBC, 5 μCi) in 3 ml of amino acid free media ±transporter inhibitors (10 mM) for 30 minutes under incubator conditions in 12×75 mm glass vials. Each assay condition was performed in duplicate. After incubation, cells were twice centrifuged (75×g for 5 minutes) and rinsed with ice-cold amino-acid/serum-free DMEM salts to remove residual activity in the supernatant. The vials were placed in a Packard Cobra II Auto-Gamma counter, the raw counts decay corrected, and the activity per cell number determined. The data from these studies (expressed as percent uptake relative to control) were graphed using Excel, with statistical comparisons between the groups analyzed using a 1-way ANOVA (GraphPad Prism software package).
(§4) To test the hypothesis that [^18F]10 and [^18F]15 enter cells predominantly via the L-type amino acid transport system, amino acid uptake assays using cultured 9L gliosarcoma and a variety of human cancer cell lines in the presence and absence of two well-described inhibitors of amino acid transport were performed. […] The A- and L-type amino acid transport systems have been implicated in the in vivo uptake of radiolabeled amino acids used for tumor imaging.

[2] = system: SKOV3 Ovarian tumor cells; experiment: Amino acid uptake assay in vitro, SKOV3 tumor cells ± transporter inhibitors; assay type: cell-based, human; settings: 30 minutes incubation
Description: as §1, §2, §3, §4

[3] = system: U87 Glioma tumor cells; experiment: Amino acid uptake assay in vitro, U87 tumor cells ± transporter inhibitors; assay type: cell-based, human; settings: 30 minutes incubation
Description: as §1, §2, §3, §4

[4] = system: A549 Lung tumor cells; experiment: Amino acid uptake assay in vitro, A549 tumor cells ± transporter inhibitors; assay type: cell-based, human; settings: 30 minutes incubation
Description: as §1, §2, §3, §4

[5] = system: MB 468 Breast tumor cells; experiment: Amino acid uptake assay in vitro, MB 468 tumor cells ± transporter inhibitors; assay type: cell-based, human; settings: 30 minutes incubation
Description: as §1, §2, §3, §4

[6] = system: 9L gliosarcoma cells and a variety of human cancer cell lines; experiment: Amino acid uptake assay in vitro as summarised in text; assay type: cell-based, rat; human; settings: for intracellular accumulation: absence of inhibitors, after 30 minutes of incubation; for amino acid transport system used for cell entry: based on inhibition of uptake in the presence of BCH
Description: as §1, §2, §3, §4

[7] = system: 9L gliosarcoma tumor / contralateral normal brain; experiment: Rodent biodistribution in rats implanted intracranially with 9L gliosarcoma cells; assay type: in vivo, male Fischer rats; settings: for retention of radioactivity in tumor tissue: 60 minutes after intravenous injection, intracranial 9L tumor; for Ratios of tumor uptake to normal brain uptake: at 60 and 120 minutes after intravenous injection, printed as x:1
Description: All animal experiments were carried out under humane conditions and were approved by the Institutional Animal Use and Care Committee (IUCAC) at Emory University. Rat 9L gliosarcoma cells were implanted into the brains of male Fischer rats. Briefly, anesthetized rats placed in a stereotactic head holder were injected with a suspension of 4×10^4 rat 9L gliosarcoma cells (1×10^7 per mL) in a location 3 mm right of midline and 1 mm anterior to the bregma at a depth of 5 mm deep to the outer table. The injection was performed over the course of 2 minutes, and the needle was withdrawn over the course of 1 minute to minimize the backflow of tumor cells. The burr hole and scalp incision were closed, and the animals were returned to their original colony after recovering from the procedure. Intracranial tumors developed that produced weight loss, apathy and hunched posture in the tumor-bearing rats, and the animals were used at 17-19 days after implantation. Of the 30 animals implanted with tumor cells, 25 developed tumors visible to the naked eye upon dissection and were used in the study. FIGS. 1-3 show the results of these studies.
The tissue distribution of radioactivity was determined in 16 normal male Fischer 344 rats (200-250 g) after intravenous injection of ˜85 μCi of [^18F]10 or [^18F]15 in 0.3 mL of sterile water. The animals were allowed food and water ad libitum before the experiment. The tail vein injections were performed in awake animals using a RTV-190 rodent restraint device (Braintree Scientific) to avoid mortality accompanying anesthesia in the presence of an intracranial mass. Groups of four rats were killed at 5 minutes, 30 minutes, 60 minutes and 120 minutes after injection of the dose. The animals were dissected, and selected tissues were weighed and counted along with dose standards in a Packard Cobra II Auto-Gamma Counter. The raw counts were decay corrected, and the counts were normalized as the percent of total injected dose per gram of tissue (% ID/g). A comparison of the uptake of activity in tumor tissue, […] at each time point was analyzed using a 1-way ANOVA (GraphPad Prism software package). FIGS. 1-3 below show the results of these studies.

| SMILES | Uptake in tumor cells expressed as percent uptake relative to control ([1]; DU145, BCH 10 mM) | Uptake in tumor cells expressed as percent uptake relative to control ([1]; DU145, MeAIB 10 mM) | Uptake in tumor cells expressed as percent uptake relative to control ([1]; DU145, no inhibitor) | Uptake in tumor cells expressed as percent uptake relative to control ([2]; SKOV3, BCH 10 mM) | Uptake in tumor cells expressed as percent uptake relative to control ([2]; SKOV3, MeAIB 10 mM) | Uptake in tumor cells expressed as percent uptake relative to control ([2]; SKOV3, no inhibitor) | Uptake in tumor cells expressed as percent uptake relative to control ([3]; U87, BCH 10 mM) | Uptake in tumor cells expressed as percent uptake relative to control ([3]; U87, MeAIB 10 mM) | Uptake in tumor cells expressed as percent uptake relative to control ([3]; U87, no inhibitor) | Uptake in tumor cells expressed as percent uptake relative to control ([4]; A549, BCH 10 mM) | Uptake in tumor cells expressed as percent uptake relative to control ([4]; A549, MeAIB 10 mM) | Uptake in tumor cells expressed as percent uptake relative to control ([4]; A549, no inhibitor) | Uptake in tumor cells expressed as percent uptake relative to control ([5]; MB 468, BCH 10 mM) | Uptake in tumor cells expressed as percent uptake relative to control ([5]; MB 468, MeAIB 10 mM) | Uptake in tumor cells expressed as percent uptake relative to control ([5]; MB 468, no inhibitor) | intracellular accumulation [6] | amino acid transport system used for cell entry [6] | retention of radioactivity in tumor tissue [7] | Ratios of tumor uptake to normal brain uptake [7] |
| --- | --- | --- | --- | --- | --- | --- | --- | --- | --- | --- | --- | --- | --- | --- | --- | --- | --- | --- | --- |
| NC1(C(=O)O)CC([18F])C1 (stereo not drawn) [Anti-[^18F]FACBC, trans-(anti-) 1-amino-3-[^18F]fluorocyclobutane-1-carboxylic acid] | 4.16% | 13.90% | 16.06% | 1.44% | 6.39% | 4.68% | 1.51% | 3.45% | 3.41% | 2.69% | 11.02% | 12.17% | 4.43% | 14.80% | 15.51% | 0.43 % of the initial dose per million cells | substrates for the L-type amino acid transport system | high | 6.5 |
| N[C@]1(C(=O)O)C[C@H]([18F])C1 [Syn-[^18F]FACBC, syn-[^18F]1-amino-3-fluorocyclobutane-1-carboxylic acid] | 9.11% | 17.16% | 20.27% | 5.87% | 8.48% | 11.67% | 5.00% | 14.80% | 24.77% | 3.85% | 9.61% | 11.91% | 10.93% | 28.25% | 33.53% | 0.50 % of the initial dose per million cells | substrates for the L-type amino acid transport system | high | 5.3 |

Reference: patent US20060292073A1, “Stereoselective Synthesis of Amino Acid Analogs for Tumor Imaging” (priority 2005, published 2006)
